This series deals with T1, human P2X7 (Homo sapiens, UniProt Q99572).
T1 construct: expressed in transfected cells
T1 sequence (Q99572 1-595): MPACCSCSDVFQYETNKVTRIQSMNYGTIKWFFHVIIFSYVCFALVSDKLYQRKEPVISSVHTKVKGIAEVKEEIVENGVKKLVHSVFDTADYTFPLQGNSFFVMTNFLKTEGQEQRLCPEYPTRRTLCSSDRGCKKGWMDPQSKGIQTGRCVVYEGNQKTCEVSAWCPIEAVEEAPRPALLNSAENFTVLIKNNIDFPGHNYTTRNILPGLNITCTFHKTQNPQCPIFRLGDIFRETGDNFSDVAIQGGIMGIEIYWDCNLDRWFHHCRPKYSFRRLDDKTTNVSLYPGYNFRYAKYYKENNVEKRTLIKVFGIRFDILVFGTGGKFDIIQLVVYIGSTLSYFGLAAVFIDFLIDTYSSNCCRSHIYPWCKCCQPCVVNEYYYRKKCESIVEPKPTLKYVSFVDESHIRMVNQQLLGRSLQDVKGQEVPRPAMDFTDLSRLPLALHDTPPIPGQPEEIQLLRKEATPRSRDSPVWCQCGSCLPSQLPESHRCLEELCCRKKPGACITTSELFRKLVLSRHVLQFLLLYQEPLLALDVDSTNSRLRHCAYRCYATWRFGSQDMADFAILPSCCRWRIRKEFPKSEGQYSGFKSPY
In words: YO-PRO-1 dye uptake assay in HEK-hP2X7 cells. As to conditions: for ATP-induced YO-PRO-1 response in fixed-concentration screen: 200 µM ATP, compared with ATP + DMSO; for ATP-induced YO-PRO-1 response in fixed-concentration screen / PAM effect on ATP dose-response curve / EC50 ratio / Maximum response (fold increase): 10 µM glycoside; for PAM effect on ATP dose-response curve: HEK-hP2X7, result in words; for EC50 ratio: average EC50 for ATP + vehicle of each set of experiments used; for Maximum response (fold increase): maximum response defined at 1 mM ATP. Format: cell-based. Here is the method: ATP-induced dye uptake experiments were performed as described previously ([Bidula et al., 2019b]). Briefly, HEK-hP2X7 cells were plated at 2 × 10^4 cells per well (100 μl per well) in complete medium and left overnight to attach to poly-D-lysine–coated 96-well plates. YO-PRO-1 iodide was prepared in a low divalent buffered solution ([…], 2 mM KCl, 13 mM D-glucose, 10 mM HEPES, 0.2 mM CaCl2 pH 7.3) to a final concentration of 2 μM. Medium was removed from the plate using a manual multichannel pipette and YO-PRO-1 containing buffer applied to wells (180 μl per well). […] A Flexstation 3 plate reader (Molecular Devices, Sunnyvale, CA) was used to record YO-PRO-1 fluorescence in HEK-hP2X7 for 300 seconds after the addition of ATP (at 10× final concentration) with/without ginsenoside compounds or vehicle (DMSO). Plates were allowed to warm up to 37°C for 10 minutes before initiating the recording. Baseline recordings were made for 40 seconds before compound addition using the Flexstation 3 fluidics system. YO-PRO-1 fluorescence was measured at 520 nm after excitation at 490 nm (auto cutoff at 495 nm), and the sample interval was 3.5 seconds. Flexstation settings were photomultiplier tube (PMT) medium, six reads per well, pipette height 170, and a rate of injection of 3. Data were acquired using Softmax Pro version 5.4 (Molecular Devices). To analyze the data, area under the dye uptake curve was calculated in Softmax Pro version 5 using zero baseline data with a lag time of 50 seconds (50–300 seconds).
Results are expressed as means ± S.D. from the indicated number of experiments. For YO-PRO-1 dye uptake and intracellular calcium experiments, each independent experiment used triplicate wells, and the means of the replicates were collated and plotted. Technical replicates were used to ensure reliability of fluorescence values. […] Dose-response curves were plotted by a nonlinear regression fit with variable slope using GraphPad Prism software version 7. Half-maximal responses are expressed as EC50 values with 95% confidence intervals. These values were calculated from the collated data for each compound from three independent experiments. Statistical differences were determined by analysis of the data by one-way ANOVA followed by Dunnett’s multiple comparison test or Sidak’s multiple comparison test using GraphPad Prism version 7. P < 0.05 was the accepted minimum level of significance.

The source of these data is paper PMC7816042, “Insights into the Structure-Activity Relationship of Glycosides as Positive Allosteric Modulators Acting on P2X7 Receptors” (Molecular Pharmacology, 2021).

Values joined by “and” are separate entries in the source; they are usually repeats but may differ in a detail not shown here. Equal values may be shown once. Where a name gives a salt, the structure may show the parent alone.

`C[C@H]1CC[C@@H]2[C@@H](C)[C@H]3[C@H](C[C@H]4[C@@H]5CC=C6C[C@@H](O[C@@H]7O[C@H](CO)[C@H](O)[C@H](O[C@@H]8O[C@H](CO)[C@@H](O)[C@H](O)[C@H]8O)[C@H]7O[C@@H]7O[C@@H](C)[C@H](O)[C@@H](O)[C@H]7O)CC[C@]6(C)[C@H]5CC[C@]34C)N2C1` [Solanine, solanine hydrochloride]: the “ATP-induced YO-PRO-1 response in fixed-concentration screen” value (from here on “ATP-induced YO-PRO-1 response”) is listed as “large increase”. In addition, the “Effect of AZ10606120 pretreatment on response to ATP + glycoside (P2X7 dependence)” value (10 µM AZ10606120 pretreatment) is reported as “unaffected by AZ10606120 pretreatment”. Besides, for the setting “YO-PRO-1 uptake without ATP or without P2X7”, the “Toxic effect on cells” value was “toxic effect on the cells”.

For the molecule `C[C@H](CC[C@@H](O[C@@H]1O[C@H](CO[C@@H]2O[C@H](CO)[C@@H](O)[C@H](O)[C@H]2O)[C@@H](O)[C@H](O)[C@H]1O[C@@H]1O[C@H](CO)[C@@H](O)[C@H](O)[C@H]1O)C(C)(C)O)[C@H]1CC[C@@]2(C)[C@@H]3CC=C4[C@@H](CC[C@H](O[C@@H]5O[C@H](CO[C@@H]6O[C@H](CO)[C@@H](O)[C@H](O)[C@H]6O)[C@@H](O)[C@H](O)[C@H]5O)C4(C)C)[C@]3(C)[C@H](O)C[C@]12C` [Mogroside V, mogroside V], the “ATP-induced YO-PRO-1 response” value is “no modulation of P2X7”.

As to `CC(=O)O[C@@H]1C[C@]2(O)[C@H](CC[C@]3(C)[C@@H](c4ccc(=O)oc4)CC[C@@]32O)[C@@]2(C)CC[C@H](O[C@@H]3O[C@H](CO)[C@@H](O)[C@H](O)[C@H]3O)C=C12` [Scilliroside], the “PAM effect on ATP dose-response curve” value was “no effect on the ATP dose-response curves”, the EC50 ratio worked out at 1.3 and the “Maximum response (fold increase)” value is reported as 1.07 fold.

On to `CC(C)=CCC[C@](C)(O)[C@H]1CC[C@]2(C)[C@@H]1[C@H](O)C[C@@H]1[C@@]3(C)CC[C@H](O[C@@H]4O[C@H](CO)[C@@H](O)[C@H](O)[C@H]4O)C(C)(C)[C@@H]3CC[C@]12C` [Ginsenoside-20(S)-Rh2, 20(S)-ginsenoside-Rh2], for which the EC50 ratio is listed as 1.8 and the “Maximum response (fold increase)” value is 2.6 fold.

`CC(C)=CCC[C@](C)(O)[C@H]1CC[C@]2(C)[C@@H]1[C@H](O)C[C@@H]1[C@@]3(C)CC[C@H](O[C@@H]4O[C@H](CO)[C@@H](O)[C@H](O)[C@H]4O[C@@H]4O[C@H](CO)[C@@H](O)[C@H](O)[C@H]4O)C(C)(C)[C@@H]3CC[C@]12C` (single isomer, unassigned) [ginsenoside-Rg3 (mixed isomers), ginsenoside-Rg3]: the “ATP-induced YO-PRO-1 response” value is “small increase in the ATP-induced YO-PRO-1 response, which was not statistically significant”.

Consider `CC[C@H](CC[C@@H](C)[C@H]1CC[C@H]2[C@@H]3CC=C4C[C@@H](O[C@@H]5O[C@H](CO)[C@@H](O)[C@H](O)[C@H]5O)CC[C@]4(C)[C@H]3CC[C@]12C)C(C)C` [Daucosterol, daucosterol], for which the “PAM effect on ATP dose-response curve” value was “no effect on the ATP dose-response curves”, the EC50 ratio is given as 0.7 and the “Maximum response (fold increase)” value came out at 1.33 fold.

Turning to `C[C@@H]1O[C@@H](O[C@H]2C[C@@H](O)[C@]3(CO)[C@H]4[C@H](O)C[C@]5(C)[C@@H](C6=CC(=O)OC6)CC[C@]5(O)[C@@H]4CC[C@]3(O)C2)[C@H](O)[C@H](O)[C@H]1O` [Ouabain, ouabain, reference compound], the “PAM effect on ATP dose-response curve” value is given as “no effect on the ATP dose-response curves”, the EC50 ratio is 1.1 and the “Maximum response (fold increase)” value was 1.08 fold.

As for `CC(C)=CCC[C@](C)(O[C@@H]1O[C@H](CO[C@@H]2OC[C@@H](O)[C@H](O)[C@H]2O)[C@@H](O)[C@H](O)[C@H]1O)[C@H]1CC[C@]2(C)[C@@H]1[C@H](O)C[C@@H]1[C@@]3(C)CC[C@H](O[C@@H]4O[C@H](CO)[C@@H](O)[C@H](O)[C@H]4O)C(C)(C)[C@@H]3CC[C@]12C` [Stevenleaf (gypenoside IX), stevenleaf], the EC50 ratio was 0.7 and the “Maximum response (fold increase)” value is reported as 1.64 fold.

Regarding `C=C1C[C@@]23CC[C@H]4[C@@](C)(CCC[C@@]4(C)C(=O)O[C@@H]4O[C@H](CO)[C@@H](O)[C@H](O)[C@H]4O)[C@@H]2CC[C@]1(O[C@@H]1O[C@H](CO)[C@@H](O)[C@H](O)[C@H]1O[C@@H]1O[C@H](CO)[C@@H](O)[C@H](O)[C@H]1O)C3` [Stevioside, stevioside], the “ATP-induced YO-PRO-1 response” value was “no modulation of P2X7” and the EC50 ratio turned out to be 1.0.

On to `CC1(C)[C@@H](O[C@H]2O[C@H](C(=O)O)[C@@H](O)[C@H](O)[C@H]2O[C@@H]2O[C@H](C(=O)O)[C@@H](O)[C@H](O)[C@H]2O)CC[C@]2(C)[C@H]3C(=O)C=C4[C@@H]5C[C@@](C)(C(=O)O)CC[C@]5(C)CC[C@@]4(C)[C@]3(C)CC[C@@H]12` [Glycyrrhizic acid, glycyrrhizic acid], for which the “ATP-induced YO-PRO-1 response” value is recorded as “no modulation of P2X7”.

Take `CC(C)=CCC[C@](C)(O[C@@H]1O[C@H](CO[C@@H]2O[C@H](CO)[C@@H](O)[C@H](O)[C@H]2O)[C@@H](O)[C@H](O)[C@H]1O)[C@H]1CC[C@]2(C)[C@@H]1[C@H](O)C[C@@H]1[C@@]3(C)CC[C@H](O[C@@H]4O[C@H](CO)[C@@H](O)[C@H](O)[C@H]4O[C@@H]4O[C@H](CO)[C@@H](O)[C@H](O)[C@H]4O)C(C)(C)[C@@H]3CC[C@]12C` [Ginsenoside-Rb1, ginsenoside-Rb1]: the “PAM effect on ATP dose-response curve” value is given as “only type I PAM activity”; the EC50 ratio is recorded as 1.2; the “Maximum response (fold increase)” value was 1.9 fold and 1.96 fold.

Regarding `COC(=O)[C@@]1(C)CC[C@]2(C(=O)O)CC[C@]3(C)C(=CC[C@@H]4[C@@]5(C)C[C@H](O)[C@H](O[C@@H]6OC[C@@H](O[C@@H]7O[C@H](CO)[C@@H](O)[C@H](O)[C@H]7O)[C@H](O)[C@H]6O)[C@@](C)(CO)[C@@H]5CC[C@]43C)[C@@H]2C1` [Esculentoside A, esculentoside A], the “PAM effect on ATP dose-response curve” value is “inactive”, the “ATP-induced YO-PRO-1 response” value is listed as “no modulation of P2X7”, the EC50 ratio was 0.8 and the “Maximum response (fold increase)” value is listed as 0.94 fold.

Take `CC(C)=CCC[C@@](O)(CO[C@@H]1O[C@H](CO)[C@@H](O)[C@H](O)[C@H]1O)[C@H]1CC[C@]2(C)[C@@H]1CC[C@@H]1[C@@]3(C=O)CC[C@H](O[C@@H]4OC[C@H](O)[C@H](O[C@@H]5OC[C@@H](O)[C@H](O)[C@H]5O)[C@H]4O[C@@H]4O[C@@H](C)[C@H](O)[C@@H](O)[C@H]4O)C(C)(C)[C@@H]3CC[C@]12C` [Gypenoside XLIX, gypenoside XLIX]: the “PAM effect on ATP dose-response curve” value is on record as “did not reduce the EC50 value for ATP”; the “ATP-induced YO-PRO-1 response” value is given as “small increase in the ATP-induced YO-PRO-1 response, which was not statistically significant”; the EC50 ratio stood at 0.9; the “Maximum response (fold increase)” value was determined as 1.9 fold.

Consider `CC(C)=CCC[C@@](C)(O)[C@H]1CC[C@]2(C)[C@@H]1[C@H](O)C[C@@H]1[C@@]3(C)CC[C@H](O[C@@H]4O[C@H](CO)[C@@H](O)[C@H](O)[C@H]4O)C(C)(C)[C@@H]3CC[C@]12C` [Ginsenoside-20(R)-Rh2, 20(R)-ginsenoside-Rh2], for which the EC50 ratio came out at 0.8 and the “Maximum response (fold increase)” value is given as 1.53 fold.
